In patent publication US20250171459A1, “2-METHYL-4',5'-DIHYDROSPIRO[PIPERIDINE-4,7'-THIENO[2,3-C]PYRAN] DERIVATIVES AS INHIBITORS OF APOL1 AND METHODS OF USING SAME” (Vertex Pharmaceuticals Incorporated, priority 2022, published 2025) one finds IC50 data, which are given here for 31 molecules.

pIC50: −log10 of the molar value.

In this experiment the target is T1, APOL1 (Homo sapiens, UniProt O14791).
T1 sequence (O14791 1-398 S342G/I384M): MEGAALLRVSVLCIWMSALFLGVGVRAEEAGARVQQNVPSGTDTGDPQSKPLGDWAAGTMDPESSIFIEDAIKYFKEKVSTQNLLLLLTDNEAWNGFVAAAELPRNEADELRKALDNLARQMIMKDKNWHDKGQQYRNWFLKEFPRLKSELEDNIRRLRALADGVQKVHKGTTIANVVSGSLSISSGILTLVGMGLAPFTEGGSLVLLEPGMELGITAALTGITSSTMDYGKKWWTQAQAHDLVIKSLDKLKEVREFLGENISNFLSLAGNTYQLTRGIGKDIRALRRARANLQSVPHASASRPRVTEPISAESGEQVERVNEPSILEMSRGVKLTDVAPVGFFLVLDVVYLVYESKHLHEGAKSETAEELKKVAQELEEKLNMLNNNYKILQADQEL
The experiment can be described thus: MultiTox-Fluor Multiplex Cytotoxicity Assay in tet-inducible APOL1 T-REx-HEK293 cells (cell rescue, ratio of dead to live cells). In kind it is cell-based. The note with it: tet-inducible transgenic APOL1 T-REx-HEK293 cell lines, 50 ng/mL tet, 24 hours; read-out: IP50 (i.e., IC50 for cell proliferation). The procedure, abridged: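 T-REx-HEK293 cells with tet-inducible APOL1 were treated with compound (10 μM top, 10-point 3-fold dilution, duplicate) plus 50 ng/mL tetracycline for 24 h at 37° C, in DMEM with 2% tet-free FBS. MultiTox-Fluor protease signals gave a dead/live ratio, normalized to no tet (100% viability) and tet alone (0%).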
In the case of `C[C@H]1C[C@@]2(CCN1Cc1cnn(C[C@H](O)C(=O)NC3CC3)c1)OC[C@@H](O)c1cc(C(F)(F)F)sc12` [Compound 999], the pIC50 was > 7.00. Next, `C[C@H]1C[C@@]2(CCN1Cc1cn(C(C)(C)CO)nn1)OCCc1c2sc(C(F)(F)F)c1CO` [Compound 1000, 2-[4-[[(2′S, 7R)-3-(hydroxymethyl)-2′-methyl-2-(trifluoromethyl)spiro[4,5-dihydrothieno[2,3-c]pyran-7,4′-piperidine]-1′-yl]methyl]triazol-1-yl]-2-methyl-propan-1-ol]: 6.00 to 6.30.

`C[C@H]1C[C@@]2(CCN1Cc1cn(CCCS(C)(=O)=O)nn1)OCCc1c2sc(C(F)(F)F)c1CO` [Compound 1001]: the pIC50 is 6.30 to 7.00. Turning to `CC(O)Cn1cc(CN2CC[C@]3(C[C@@H]2C)OCCc2c3sc(C(F)(F)F)c2CO)nn1` (stereo partly shown) [Compound 1002], the pIC50 is > 7.00. Take `C[C@H]1C[C@@]2(CCN1Cc1cn(CC(C)(CO)CO)nn1)OCCc1c2sc(C(F)(F)F)c1CO` [Compound 1003]: the pIC50 was > 7.00.

For the molecule `C[C@H]1C[C@@]2(CCN1Cc1cn(C3CCOCC3)nn1)OCCc1c2sc(C(F)(F)F)c1CO` [Compound 1004], the pIC50 is 6.30 to 7.00. Next, `C[C@H]1C[C@@]2(CCN1Cc1cn(CC(O)C(C)(C)O)nn1)OCCc1c2sc(C(F)(F)F)c1CO` (stereo partly shown) [Compound 1005]: > 7.00. Next, `COC(=O)c1c(C(F)(F)F)sc2c1CCO[C@@]21CCN(Cc2cn(CCS(C)(=O)=O)nn2)[C@@H](C)C1` [Compound 1006, Methyl (2′S,7R)-2′-methyl-1′-[[1-(2-methylsulfonylethyl)triazol-4-yl]methyl]-2-(trifluoromethyl)spiro[4,5-dihydrothieno[2,3-c]pyran-7,4′-piperidine]-3-carboxylate]: 6.30 to 7.00. Turning to `CCCNC(=O)c1c(C(F)(F)F)sc2c1CCO[C@@]21CCN(Cc2cn(CCS(C)(=O)=O)nn2)[C@@H](C)C1` [Compound 1007, (2′S,7R)-2′-methyl-1′-[[1-(2-methylsulfonylethyl)triazol-4-yl]methyl]-N-propyl-2-(trifluoromethyl)spiro[4,5-dihydrothieno[2,3-c]pyran-7,4′-piperidine]-3-carboxamide], the pIC50 is 6.00 to 6.30. Next, `C[C@H]1C[C@@]2(CCN1Cc1cn(CCS(C)(=O)=O)nn1)OCCc1c2sc(C(F)(F)F)c1C(=O)NCC1CC1` [Compound 1008]: 6.00 to 6.30; `C[C@H]1C[C@@]2(CCN1Cc1cn(CCS(C)(=O)=O)nn1)OCCc1c2sc(C(F)(F)F)c1C(=O)NCC(F)F` [Compound 1009]: 6.00 to 6.30; `C[C@H]1C[C@@]2(CCN1Cc1cn(CCS(C)(=O)=O)nn1)OCCc1c2sc(C(F)(F)F)c1Cl` [Compound 1010, (2′S, 7R)-3-chloro-2′-methyl-1′-[[1-(2-methylsulfonylethyl)triazol-4-yl]methyl]-2-(trifluoromethyl)spiro[4,5-dihydrothieno[2,3-c]pyran-7,4′-piperidine]]: > 7.00. As for `C[C@H]1C[C@@]2(CCN1Cc1cnn(CCS(C)(=O)=O)c1)OCCc1cc(C(F)(F)C(F)F)sc12` [Compound 1011, (2′S, 7R)-2′-methyl-1′-[[1-(2-methylsulfonylethyl)pyrazol-4-yl]methyl]-2-(1,1,2,2-tetrafluoroethyl)spiro[4,5-dihydrothieno[2,3-c]pyran-7,4′-piperidine]], the pIC50 was > 7.00. In the case of `C[C@H]1C[C@@]2(CCN1Cc1cnn(CCS(C)(=O)=O)c1)OCC(O)c1cc(C(F)(F)C(F)F)sc12` (stereo partly drawn) [Compound 1012, (2′S, 7R)-2′-methyl-1′-[[1-(2-methylsulfonylethyl)pyrazol-4-yl]methyl]-2-(1,1,2,2-tetrafluoroethyl)spiro[4,5-dihydrothieno[2,3-c]pyran-7,4′-piperidine]-4-ol], the pIC50 is > 7.00.

With `[2H]C(OCC)c1cc2c(s1)[C@]1(CCN(Cc3cnn(CCS(C)(=O)=O)c3)[C@@H](C)C1)OCC2` (stereo partly drawn) [Compound 1015, (2′S, 7R)-2-[deuterio(ethoxy)methyl]-2′-methyl-1′-[[1-(2-methylsulfonylethyl)pyrazol-4-yl]methyl]spiro[4,5-dihydrothieno[2,3-c]pyran-7,4′-piperidine]], the pIC50 was > 7.00.

With `C[C@H]1C[C@@]2(CCN1Cc1cnn(CCS(C)(=O)=O)c1)OCCc1cc(CO)sc12` [Compound 1016, [(2′S,7R)-2′-methyl-1′-[[1-(2-methylsulfonylethyl)pyrazol-4-yl]methyl]spiro[4,5-dihydrothieno[2,3-c]pyran-7,4′-piperidine]-2-yl]methanol], the pIC50 was 6.30 to 7.00. Next, `COCc1cc2c(s1)[C@]1(CCN(Cc3cnn(CCS(C)(=O)=O)c3)[C@@H](C)C1)OCC2` [Compound 1017, (2′S, 7R)-2-(methoxymethyl)-2′-methyl-1′-[[1-(2-methylsulfonylethyl)pyrazol-4-yl]methyl]spiro[4,5-dihydrothieno[2,3-c]pyran-7,4′-piperidine]]: 6.30 to 7.00; `C[C@H]1C[C@@]2(CCN1Cc1cnn(C)c1)OCCc1cc(CO)sc12` [Compound 1018, [(2′S, 7R)-2′-methyl-1′-[(1-methylpyrazol-4-yl)methyl]spiro[4,5-dihydrothieno[2,3-c]pyran-7,4′-piperidine]-2-yl]methanol]: 6.30 to 7.00. As to `C[C@H]1C[C@@]2(CCN1Cc1cn(CCS(C)(=O)=O)nn1)OCCc1cc(CO)sc12` [Compound 1019, [(2′S, 7R)-2′-methyl-1′-[[1-(2-methylsulfonylethyl)triazol-4-yl]methyl]spiro[4,5-dihydrothieno[2,3-c]pyran-7,4′-piperidine]-2-yl]methanol], the pIC50 was 6.00 to 6.30. Turning to `C[C@H]1C[C@@]2(CCN1Cc1cnn(C)c1)OCCc1cc(C(C)(C)C)sc12` [Compound 1020, (2S,4R)-2′-(tert-butyl)-2-methyl-1-((1-methyl-1H-pyrazol-4-yl)methyl)-4′,5′-dihydrospiro[piperidine-4,7′-thieno[2,3-c]pyran]], the pIC50 is 6.00 to 6.30. Take `C[C@H]1CC2(CCN1Cc1cnn(C)c1)OC1CCCCC1c1cc(Cl)sc12` (stereo partly drawn) [Compound 1021, (2S)-2′-chloro-2-methyl-1-((1-methyl-1H-pyrazol-4-yl)methyl)-5a′,6′,7′,8′,9′,9a′-hexahydrospiro[piperidine-4,4′-thieno[2,3-c]chromene]]: the pIC50 is 6.30 to 7.00. Next, `C[C@H]1CC2(CCN1Cc1cnn(CCS(C)(=O)=O)c1)OCC1(CC1)c1cc(Cl)sc12` (stereo partly shown) [Compound 1022, (2″S)-2′-chloro-2″-methyl-1″-((1-(2-(methylsulfonyl)ethyl)-1H-pyrazol-4-yl)methyl)-5′H-dispiro[cyclopropane-1,4′-thieno[2,3-c]pyran-7′,4″-piperidine]]: > 7.00. As to `C[C@H]1CC2(CCN1Cc1cnn(CCS(C)(=O)=O)c1)OCCc1c2sc2ccccc12` (stereo partly drawn) [Compound 1023, (2′S)-2′-methyl-1′-((1-(2-(methylsulfonyl)ethyl)-1H-pyrazol-4-yl)methyl)-3,4-dihydrospiro[benzo[4,5]thieno[2,3-c]pyran-1,4′-piperidine]], the pIC50 is 6.00 to 6.30. Next, `Cc1cc2c(s1)[C@]1(CCN(Cc3cn[nH]c3)[C@@H](C)C1)OCC2` [Compound 1024, (2′S, 7R)-2,2′-dimethyl-1′-(1H-pyrazol-4-ylmethyl)spiro[4,5-dihydrothieno[2,3-c]pyran-7,4′-piperidine]]: > 7.00; `Cc1cc2c(s1)[C@]1(CCN(Cc3cnc(NC(C)(C)CO)nc3)[C@@H](C)C1)OCC2` [Compound 1025]: > 7.00; `Cc1cc2c(s1)[C@]1(CCN(Cc3cnn(CCS(C)(=O)=O)c3)[C@@H](C)C1)OCC2` [Compound 1026]: > 7.00. Turning to `Cc1cc2c(s1)[C@]1(CCN(Cc3cnn(CCO)c3)[C@@H](C)C1)OCC2` [Compound 1027, 2-[4-[[(2′S, 7R)-2,2′-dimethylspiro[4,5-dihydrothieno[2,3-c]pyran-7,4′-piperidine]-1′-yl]methyl]pyrazol-1-yl]ethanol], the pIC50 is > 7.00. Next, `Cc1cc2c(s1)[C@]1(CCN(Cc3cnn(CC(C)(CO)CO)c3)[C@@H](C)C1)OCC2` [Compound 1028, 2-[[4-[[(2′S, 7R)-2,2′-dimethylspiro[4,5-dihydrothieno[2,3-c]pyran-7,4′-piperidine]-1′-yl]methyl]pyrazol-1-yl]methyl]-2-methyl-propane-1,3-diol]: > 7.00; `Cc1cc2c(s1)C1(CCN(Cc3cn(CCS(C)(=O)=O)nn3)[C@@H](C)C1)OCC2` (stereo partly drawn) [Compound 1029, (2′S)-2,2′-dimethyl-1′-[[1-(2-methylsulfonylethyl)triazol-4-yl]methyl]spiro[4,5-dihydrothieno[2,3-c]pyran-7,4′-piperidine]]: 6.30 to 7.00.

For the molecule `Cc1cc2c(s1)[C@]1(CCN(Cc3cnn(CCS(C)(=O)=O)c3)[C@@H](C)C1)OCC2(O)C(F)F` (stereo partly drawn) [Compound 1031, (2′S, 7R)-4-(difluoromethyl)-2,2′-dimethyl-1′-[[1-(2-methylsulfonylethyl)pyrazol-4-yl]methyl]spiro[5H-thieno[2,3-c]pyran-7,4′-piperidine]-4-ol], the pIC50 is > 7.00. Next, `C[C@H]1C[C@@]2(CCN1Cc1cnn(CCS(C)(=O)=O)c1)OCCc1cc(CC(F)(F)F)sc12` [Compound 1032, (2′S, 7R)-2′-methyl-1′-[[1-(2-methylsulfonylethyl)pyrazol-4-yl]methyl]-2-(2,2,2-trifluoroethyl)spiro[4,5-dihydrothieno[2,3-c]pyran-7,4′-piperidine]]: > 7.00.
